{"source": "patent US7265155B2", "about": "(NBS Pharmaceuticals, Inc., priority 1996, dated 2007)", "key": {"Frings mouse": {"tested_on": "Frings mouse", "test": "Rotarod motor impairment (toxicity) in the Frings mouse", "assay_type": "in vivo", "details": "for Number Showing Toxicity of Eight Mice Tested at 30 minutes / Number Showing Toxicity of Eight Mice Tested at 120 minutes: Table 5; for Number Showing Toxicity of Four Mice Tested at 30 minutes / Number Showing Toxicity of Four Mice Tested at 120 minutes: Table 4", "procedure": "(§1) The average seizure score can be calculated for each group of mice employed in the dose-response study. At each dose, mice are also tested on a rotarod for testing of motor impairment (toxicity). Testing for motor impairment on the rotarod involves placing a mouse for a three-minute trial period on a one-inch diameter rod rotating at six revolutions per minute. If the mouse falls off of the rotating rod three times within the three-minute time period, it is considered a toxic response."}, "[1]": {"tested_on": "Frings audiogenic seizure-susceptible mouse", "test": "Frings audiogenic seizure-susceptible mouse model of epilepsy", "assay_type": "in vivo", "details": "for anticonvulsant activity when administered orally: oral", "description": "One useful model is provided by the Frings audiogenic seizure-susceptible mouse, a model of reflex epilepsy. At the time of testing, individual mice are placed into a round Plexiglas chamber and exposed to a sound stimulus of 110 decibels, 11 kHz, for 20 seconds. Animals not displaying tonic hindlimb extensions were considered protected. In addition, the seizure score for each mouse can be recorded as: (1) running for less than 10 seconds; (2) running for greater than 10 seconds; (3) clonic activity of limbs and/or vibrissae; (4) forelimb extension/hindlimb flexion; and (5) hindlimb extension.\nas §1"}, "[2]": {"details": "in vivo; cited from earlier work"}, "[3]": {"details": "reported in the literature; cited from earlier work"}, "rat": {"tested_on": "rat", "test": "Rotarod Test in the Rat", "assay_type": "in vivo", "details": "for Number of Rats Falling: ten rats per group", "procedure": "This is a test of neurological deficits using the method described by Dunham et al., J. Am. Pharm. Assoc. 46: 208-09 (1957). Rats or mice are placed on a rod rotating at a speed of eight turns per minute. The number of animals which drop off the rod before three minutes is counted and the drop-off times are recorded (maximum: 180 seconds). Ten rats are studied per group and the test is performed blind. The test compound is administered i.p. 60 minutes prior to testing. Diazepam, a benzodiazepine, is administered at 8 mg/kg, i.p., as the reference substance. A control group administered the vehicle is also included in the study."}, "[4]": {"details": "4 mg/kg i.p. 60 minutes before test"}, "[5]": {"details": "8 mg/kg i.p. 60 minutes before test"}}, "note": "Marks after values point to notes of the source that are not given here.", "data": [{"smiles": "CC(C)C(C)C(N)=O", "note": "(stereo not shown) [2-methylisovaleramide]", "values": [{"measurement": "Number Showing Toxicity of Eight Mice Tested at 30 minutes", "setting": "Frings mouse; 30 mg/kg oral", "result": 0}, {"measurement": "Number Showing Toxicity of Eight Mice Tested at 120 minutes", "setting": "Frings mouse; 30 mg/kg oral", "result": 0}, {"measurement": "Number Showing Toxicity of Eight Mice Tested at 30 minutes", "setting": "Frings mouse; 100 mg/kg oral", "result": 0}, {"measurement": "Number Showing Toxicity of Eight Mice Tested at 120 minutes", "setting": "Frings mouse; 100 mg/kg oral", "result": 0}, {"measurement": "Number Showing Toxicity of Eight Mice Tested at 30 minutes", "setting": "Frings mouse; 300 mg/kg oral", "result": "2^a"}, {"measurement": "Number Showing Toxicity of Eight Mice Tested at 120 minutes", "setting": "Frings mouse; 300 mg/kg oral", "result": 0}, {"measurement": "signs of toxicity in the animals counted as toxic", "setting": "Frings mouse; Table 5 footnote, 300 mg/kg oral, 30 minutes", "result": "^ano definitive signs of toxicity such as sedation or ataxia, animals just fell off"}, {"measurement": "Number Protected of Four Mice Tested at 30 minutes", "setting": "[1]; Table 5, 30 mg/kg oral", "result": 0}, {"measurement": "Number Protected of Four Mice Tested at 120 minutes", "setting": "[1]; Table 5, 30 mg/kg oral", "result": 0}, {"measurement": "Number Protected of Four Mice Tested at 30 minutes", "setting": "[1]; Table 5, 100 mg/kg oral", "result": 1}, {"measurement": "Number Protected of Four Mice Tested at 120 minutes", "setting": "[1]; Table 5, 100 mg/kg oral", "result": 0}, {"measurement": "Number Protected of Four Mice Tested at 30 minutes", "setting": "[1]; Table 5, 300 mg/kg oral", "result": 4}, {"measurement": "Number Protected of Four Mice Tested at 120 minutes", "setting": "[1]; Table 5, 300 mg/kg oral", "result": 1}, {"measurement": "anticonvulsant activity when administered orally", "setting": "[1]", "result": "displayed anticonvulsant activity when administered orally"}]}, {"smiles": "CCN(CC)C(=O)CC(C)C", "note": "[N,N-Diethyl isovaleramide]", "values": [{"measurement": "CNS properties", "setting": "[2]", "result": "CNS stimulant (convulsant) properties"}]}, {"smiles": "CC(C)CC(=O)O", "note": "[Isovaleric acid, isovaleric acid]", "values": [{"measurement": "anticonvulsant activity", "setting": "[3]", "result": "inactive as an anticonvulsant"}]}, {"smiles": "CC(C)CC(=O)NCC(N)=O", "note": "[N-(2-acetamido)isovaleramide]", "values": [{"measurement": "Number Showing Toxicity of Four Mice Tested at 30 minutes", "setting": "Frings mouse; 30 mg/kg oral", "result": 0}, {"measurement": "Number Showing Toxicity of Four Mice Tested at 120 minutes", "setting": "Frings mouse; 30 mg/kg oral", "result": 0}, {"measurement": "Number Showing Toxicity of Four Mice Tested at 30 minutes", "setting": "Frings mouse; 100 mg/kg oral", "result": 0}, {"measurement": "Number Showing Toxicity of Four Mice Tested at 120 minutes", "setting": "Frings mouse; 100 mg/kg oral", "result": 0}, {"measurement": "Number Showing Toxicity of Four Mice Tested at 30 minutes", "setting": "Frings mouse; 300 mg/kg oral", "result": 0}, {"measurement": "Number Showing Toxicity of Four Mice Tested at 120 minutes", "setting": "Frings mouse; 300 mg/kg oral", "result": 0}, {"measurement": "Number Showing Toxicity of Four Mice Tested at 30 minutes", "setting": "Frings mouse; 1000 mg/kg oral", "result": 1}, {"measurement": "Number Showing Toxicity of Four Mice Tested at 120 minutes", "setting": "Frings mouse; 1000 mg/kg oral", "result": 0}, {"measurement": "Number Protected of Four Mice Tested at 30 minutes", "setting": "[1]; Table 4, 30 mg/kg oral", "result": 0}, {"measurement": "Number Protected of Four Mice Tested at 120 minutes", "setting": "[1]; Table 4, 30 mg/kg oral", "result": 0}, {"measurement": "Number Protected of Four Mice Tested at 30 minutes", "setting": "[1]; Table 4, 100 mg/kg oral", "result": 0}, {"measurement": "Number Protected of Four Mice Tested at 120 minutes", "setting": "[1]; Table 4, 100 mg/kg oral", "result": 0}, {"measurement": "Number Protected of Four Mice Tested at 30 minutes", "setting": "[1]; Table 4, 300 mg/kg oral", "result": 0}, {"measurement": "Number Protected of Four Mice Tested at 120 minutes", "setting": "[1]; Table 4, 300 mg/kg oral", "result": 0}, {"measurement": "Number Protected of Four Mice Tested at 30 minutes", "setting": "[1]; Table 4, 1000 mg/kg oral", "result": 3}, {"measurement": "Number Protected of Four Mice Tested at 120 minutes", "setting": "[1]; Table 4, 1000 mg/kg oral", "result": 4}, {"measurement": "anticonvulsant activity when administered orally", "setting": "[1]", "result": "displayed anticonvulsant activity when administered orally"}]}, {"smiles": "CN1C(=O)CN=C(c2ccccc2)c2cc(Cl)ccc21", "note": "[Diazepam, diazepam]", "values": [{"measurement": "Drop-Off Time % change from control", "setting": "rat; [4]", "result": "−59", "unit": "%"}, {"measurement": "Drop-Off Time (sec) Mean ± S.E.M.", "setting": "rat; [4]", "result": "55.8 ± 20.6^d sec"}, {"measurement": "Number of Rats Falling", "setting": "rat; [4]", "result": 9}, {"measurement": "Drop-Off Time % change from control", "setting": "rat; [5]", "result": "−88", "unit": "%"}, {"measurement": "Drop-Off Time (sec) Mean ± S.E.M.", "setting": "rat; [5]", "result": "16.3 ± 6.4^f sec"}, {"measurement": "Number of Rats Falling", "setting": "rat; [5]", "result": "10+ ^e"}, {"measurement": "rotarod performance in the rat", "setting": "rat; i.p. 60 minutes before test, isovaleramide 128, 256 and 512 mg/kg", "result": "dose-dependently decreased rotarod performance"}]}]}
